Experimental data: patent US12331059B2 (priority 2019, dated 2025)
pIC50: −log10 of the molar value.

test system: U937 leukemia cells; assay: not given; design: species or system NSG mice; conditions: mouse

`Cc1ncsc1-c1ccc(CNC(=O)C2CC(O)CN2C(=O)C(NC(=O)CCNC(=O)OCCCC2OC3OC4(C)CCC5C(C)CCC(C2C)C35OO4)C(C)(C)C)cc1` (stereo not drawn) [CL-8] was tested, and the “inhibition towards the growth of U937 leukemia cells in vivo” value was “strong inhibition”.

same assay, conditions: mouse, in vivo

Compared with `Cc1ncsc1-c1ccc(CNC(=O)C2CC(O)CN2C(=O)C(NC(=O)CCNC(=O)OCCCC2OC3OC4(C)CCC5C(C)CCC(C2C)C35OO4)C(C)(C)C)cc1` (stereo not drawn) [CL-8], `C[C@H]1[C@H](OC(=O)CCC(=O)O)O[C@@H]2O[C@@]3(C)CC[C@H]4[C@H](C)CC[C@@H]1[C@@]24OO3` [artesunate, reference compound] is higher in “The proportion of human leukemia cells in bone marrow of mice” value: 0.38 ± 0.08 for the first, 91.28 ± 2.20 for the second.

Compared with `Cc1ncsc1-c1ccc(CNC(=O)C2CC(O)CN2C(=O)C(NC(=O)CCNC(=O)OCCCC2OC3OC4(C)CCC5C(C)CCC(C2C)C35OO4)C(C)(C)C)cc1` (stereo not drawn) [CL-8], `C[C@H]1[C@H](OC(=O)CCC(=O)O)O[C@@H]2O[C@@]3(C)CC[C@H]4[C@H](C)CC[C@@H]1[C@@]24OO3` [artesunate, reference compound] is higher in “The proportion of human leukemia cells in peripheral blood of mice” value: 0.96 ± 0.16 for the first, 21.92 ± 2.58 for the second.

Going from `Cc1ncsc1-c1ccc(CNC(=O)C2CC(O)CN2C(=O)C(NC(=O)CCNC(=O)OCCCC2OC3OC4(C)CCC5C(C)CCC(C2C)C35OO4)C(C)(C)C)cc1` (stereo not drawn) [CL-8] to `C[C@H]1[C@H](OC(=O)CCC(=O)O)O[C@@H]2O[C@@]3(C)CC[C@H]4[C@H](C)CC[C@@H]1[C@@]24OO3` [artesunate, reference compound], the “The proportion of human leukemia cells in spleen of mice” value rises from 11.39 ± 21.3 to 49.77 ± 9.28.

test system: MV4-11 cells; assay: cells; type: cell-based; conditions: Homo sapiens, MV4-11, 48 h

First: Cc1ncsc1-c1ccc(CNC(=O)C2CC(O)CN2C(=O)C(NC(=O)CCOCCOCCNC(=O)OCCCC2OC3OC4(C)CCC5C(C)CCC(C2C)C35OO4)C(C)(C)C)cc1 (stereo not drawn) [CL-2]
Second: Cc1ncsc1-c1ccc(CNC(=O)C2CC(O)CN2C(=O)C(NC(=O)CCOCCOCCNC(=O)OCCC2OC3OC4(C)CCC5C(C)CCC(C2C)C35OO4)C(C)(C)C)cc1 (stereo not drawn) [CL-18]
The pIC50 of the first is 0.65 log units higher: 6.23 for the first, 5.58 for the second.

`Cc1ncsc1-c1ccc(CNC(=O)C2CC(O)CN2C(=O)C(NC(=O)CCOCCOCCOCCNC(=O)OCCCC2OC3OC4(C)CCC5C(C)CCC(C2C)C35OO4)C(C)(C)C)cc1` (stereo not drawn) [CL-3] and `Cc1ncsc1-c1ccc(CNC(=O)C2CC(O)CN2C(=O)C(NC(=O)CCOCCOCCOCCNC(=O)OCCC2OC3OC4(C)CCC5C(C)CCC(C2C)C35OO4)C(C)(C)C)cc1` (stereo not drawn) [CL-19] are within 0.2 log units of each other in pIC50: 6.28 for the first, 6.30 for the second.

Going from `Cc1ncsc1-c1ccc(CNC(=O)C2CC(O)CN2C(=O)C(NC(=O)CNC(=O)OCCCC2OC3OC4(C)CCC5C(C)CCC(C2C)C35OO4)C(C)(C)C)cc1` (stereo not drawn) [CL-4] to `Cc1ncsc1-c1ccc(CNC(=O)C2CC(O)CN2C(=O)C(NC(=O)CCNC(=O)OCCCC2OC3OC4(C)CCC5C(C)CCC(C2C)C35OO4)C(C)(C)C)cc1` (stereo not drawn) [CL-8], the pIC50 rises from 6.04 to 6.62 (0.58 log units). The second is the more potent here.

Going from `Cc1ncsc1-c1ccc(CNC(=O)C2CC(O)CN2C(=O)C(NC(=O)CCCNC(=O)OCCCC2OC3OC4(C)CCC5C(C)CCC(C2C)C35OO4)C(C)(C)C)cc1` (stereo not drawn) [CL-5] to `Cc1ncsc1-c1ccc(CNC(=O)C2CC(O)CN2C(=O)C(NC(=O)CCCCNC(=O)OCCCC2OC3OC4(C)CCC5C(C)CCC(C2C)C35OO4)C(C)(C)C)cc1` (stereo not drawn) [CL-6], the pIC50 falls from 6.26 to 5.28 (0.98 log units).

Compared with `Cc1ncsc1-c1ccc(CNC(=O)C2CC(O)CN2C(=O)C(NC(=O)Cc2ccc(CNC(=O)OCCCC3OC4OC5(C)CCC6C(C)CCC(C3C)C46OO5)cc2)C(C)(C)C)cc1` (stereo not drawn) [CL-7], `Cc1ncsc1-c1ccc(CNC(=O)C2CC(O)CN2C(=O)C(NC(=O)Cc2ccc(CNC(=O)OCCC3OC4OC5(C)CCC6C(C)CCC(C3C)C46OO5)cc2)C(C)(C)C)cc1` (stereo not drawn) [CL-23] is 1.13 log units lower in pIC50: 6.34 for the first, 5.21 for the second.

Compared with `Cc1ncsc1-c1ccc(CNC(=O)C2CC(O)CN2C(=O)C(NC(=O)CCOCCNC(=O)CC2OC3OC4(C)CCC5C(C)CCC(C2C)C35OO4)C(C)(C)C)cc1` (stereo not drawn) [CL-9], `Cc1ncsc1-c1ccc(CNC(=O)C2CC(O)CN2C(=O)C(NC(=O)CCOCCOCCNC(=O)CC2OC3OC4(C)CCC5C(C)CCC(C2C)C35OO4)C(C)(C)C)cc1` (stereo not drawn) [CL-10] is 0.98 log units lower in pIC50: 5.33 for the first, 4.35 for the second. The first is the more potent here.

First: Cc1ncsc1-c1ccc(CNC(=O)C2CC(O)CN2C(=O)C(NC(=O)CCOCCOCCOCCNC(=O)CC2OC3OC4(C)CCC5C(C)CCC(C2C)C35OO4)C(C)(C)C)cc1 (stereo not drawn) [CL-11]
Second: Cc1ncsc1-c1ccc(CNC(=O)C2CC(O)CN2C(=O)C(NC(=O)CCOCCNC(=O)OCCC2OC3OC4(C)CCC5C(C)CCC(C2C)C35OO4)C(C)(C)C)cc1 (stereo not drawn) [CL-17]
The pIC50 of the first is 1.99 log units lower: 4.53 for the first, 6.52 for the second. The second is the more potent here.

Compared with `Cc1ncsc1-c1ccc(CNC(=O)C2CC(O)CN2C(=O)C(NC(=O)CNC(=O)CC2OC3OC4(C)CCC5C(C)CCC(C2C)C35OO4)C(C)(C)C)cc1` (stereo not drawn) [CL-12], `Cc1ncsc1-c1ccc(CNC(=O)C2CC(O)CN2C(=O)C(NC(=O)CCCNC(=O)CC2OC3OC4(C)CCC5C(C)CCC(C2C)C35OO4)C(C)(C)C)cc1` (stereo not drawn) [CL-13] is 0.45 log units lower in pIC50: 5.96 for the first, 5.51 for the second. The first is the more potent here.

`Cc1ncsc1-c1ccc(CNC(=O)C2CC(O)CN2C(=O)C(NC(=O)Cc2ccc(CNC(=O)CC3OC4OC5(C)CCC6C(C)CCC(C3C)C46OO5)cc2)C(C)(C)C)cc1` (stereo not drawn) [CL-15] and `Cc1ncsc1-c1ccc(CNC(=O)C2CC(O)CN2C(=O)C(NC(=O)CCNC(=O)OCCC2OC3OC4(C)CCC5C(C)CCC(C2C)C35OO4)C(C)(C)C)cc1` (stereo not drawn) [CL-24] are within 0.2 log units of each other in pIC50: 6.28 for the first, 6.30 for the second.

Compared with `Cc1ncsc1-c1ccc(CNC(=O)C2CC(O)CN2C(=O)C(NC(=O)CCCNC(=O)OCCC2OC3OC4(C)CCC5C(C)CCC(C2C)C35OO4)C(C)(C)C)cc1` (stereo not drawn) [CL-21], `Cc1ncsc1-c1ccc(CNC(=O)C2CC(O)CN2C(=O)C(NC(=O)CCCCNC(=O)OCCC2OC3OC4(C)CCC5C(C)CCC(C2C)C35OO4)C(C)(C)C)cc1` (stereo not drawn) [CL-22] is 0.62 log units higher in pIC50: 6.08 for the first, 6.70 for the second. The second is the more potent here.

`Cc1ncsc1-c1ccc(CNC(=O)C2CC(O)CN2C(=O)C(NC(=O)CCOCCNC(=O)C23CC4CC(C2)C2(OOC5(CCCCC5)O2)C(C4)C3)C(C)(C)C)cc1` (stereo not drawn) [CL-25] and `Cc1ncsc1-c1ccc(CNC(=O)C2CC(O)CN2C(=O)C(NC(=O)CCOCCOCCNC(=O)C23CC4CC(C2)C2(OOC5(CCCCC5)O2)C(C4)C3)C(C)(C)C)cc1` (stereo not drawn) [CL-26] are within 0.2 log units of each other in pIC50: 5.26 for the first, 5.09 for the second.

Compared with `Cc1ncsc1-c1ccc(CNC(=O)C2CC(O)CN2C(=O)C(NC(=O)CCOCCOCCOCCNC(=O)C23CC4CC(C2)C2(OOC5(CCCCC5)O2)C(C4)C3)C(C)(C)C)cc1` (stereo not drawn) [CL-27], `Cc1ncsc1-c1ccc(CNC(=O)C2CC(O)CN2C(=O)C(NC(=O)CCNC(=O)C23CC4CC(C2)C2(OOC5(CCCCC5)O2)C(C4)C3)C(C)(C)C)cc1` (stereo not drawn) [CL-32] is 0.55 log units higher in pIC50: 4.92 for the first, 5.47 for the second.

First: Cc1ncsc1-c1ccc(CNC(=O)C2CC(O)CN2C(=O)C(NC(=O)CNC(=O)C23CC4CC(C2)C2(OOC5(CCCCC5)O2)C(C4)C3)C(C)(C)C)cc1 (stereo not drawn) [CL-28]
Second: Cc1ncsc1-c1ccc(CNC(=O)C2CC(O)CN2C(=O)C(NC(=O)CCCNC(=O)C23CC4CC(C2)C2(OOC5(CCCCC5)O2)C(C4)C3)C(C)(C)C)cc1 (stereo not drawn) [CL-29]
The pIC50 of the first is 0.45 log units lower: 5.01 for the first, 5.46 for the second. The second is the more potent here.

Compared with `Cc1ncsc1-c1ccc(CNC(=O)C2CC(O)CN2C(=O)C(NC(=O)CCCCNC(=O)C23CC4CC(C2)C2(OOC5(CCCCC5)O2)C(C4)C3)C(C)(C)C)cc1` (stereo not drawn) [CL-30], `Cc1ncsc1-c1ccc(CNC(=O)C2CC(O)CN2C(=O)C(NC(=O)Cc2ccc(CNC(=O)C34CC5CC(C3)C3(OOC6(CCCCC6)O3)C(C5)C4)cc2)C(C)(C)C)cc1` (stereo not drawn) [CL-31] is 0.44 log units higher in pIC50: 5.08 for the first, 5.52 for the second. The second is the more potent here.

Work on `Cc1ncsc1-c1ccc(CNC(=O)C2CC(O)CN2C(=O)C(NC(=O)CCNC(=O)CCC(=O)NN2C(=O)C(C)C3CCC(C)C4CCC5(C)OOC43C2O5)C(C)(C)C)cc1` (stereo not drawn) [CL-40] yielded a pIC50 of 5.22.
